According to patent US11654198B2, “Application of combination of polyethylene glycol and local anesthetic in non-narcotic analgesia” (JENKEM TECHNOLOGY CO., LTD. (TIANJIN), priority 2016, dated 2023):

Experiments:
[1] = PEG-bupivacaine conjugate hydrolysis drug release in pH 7.4 PBS buffer (Example 29); type: physicochemical; conditions: 37° C., about 2 mg/mL
Experimental: Preparation of isotonic phosphate buffer (0.01 mol/L, pH 7.4, PBS): 8.0 g of NaCl, 0.2 g of KH2PO4, 2.9 g of Na2HPO4.12H2O and 0.2 g of KCl are added sequentially to a quantitative container, and an appropriate amount of distilled water is added to dissolve, and then the volume is adjusted to 1000 mL and the obtained buffer is stored in a refrigerator at 4° C. for use.
Hydrolysis drug release for the PEG-bupivacaine conjugate: PEG-bupivacaine products (bupivacaine conjugate 6, prepared in Example 9 of the present invention; bupivacaine conjugate 10, prepared in Example 16 of the present invention) are dissolved in PBS buffer at about 2 mg/mL and placed in a water-bathing constant temperature vibrator at 37° C. Samples are taken at 0 h, 6 h, 12 h, 24 h, 48 h, 72 h, 96 h, 120 h and 144 h, and the content of free bupivacaine is determined by HPLC.

SD rats [2] = experiment: Motor block four-level score, bupivacaine dose test (Example 28); type: in vivo, rat; design: key to motor function score: 1 = normal movement, 4 = complete loss of paw function
From the text: (§1) 1.3 Test substance: bupivacaine injection, diluted with physiological saline to the target concentration; the reference substance is physiological saline.
(§2) After the animals are anesthetized by intraperitoneal injection of 10% chloral hydrate solution, the sciatic nerve is exposed to the biceps and gluteus maximus joints of the hind limbs through surgery, and silicone flexible catheters of the same length (7 cm) are placed around the sciatic nerve. the other ends of the catheters are subcutaneously embedded in the back of the rat, and then sutured and fixed, and 0.2 mL of an antibiotic solution (5,000 U/ml penicillin G) is injected for anti-inflammatory.
(§3) Twenty-four qualified rats (animals with no dyskinesia and pain threshold change after catheterization) are randomly divided into 6 groups, 4 rats in each group, the first group is a control group, the experimental animals are administered with normal saline, and the other groups are administered with different doses of bupivacaine injection. Each group is injected with a corresponding drug through the catheter around the sciatic nerve.
The exercise condition of each group of rats is evaluated by a motor block four-level scoring method. The scoring criteria are: paws can be dorsiflexed, stretched, valgus and other normal exercises, scored by 1 point; paws can be dorsiflexed, bendable or after the adduction, although the paws can be stretched, the stretching ability is weakened, scored by 2 points; the paws can perform dorsiflexion, but no longer has the ability to stretch, scored by 3 points; the paws completely lose the ability of dorsiflexion, curling and stretching, and the rats produce a gait defect, scored by 4 points. The time point for measuring the motor block score is before administration, and 5 min, 10 min, 30 min, 1 h, and 2 h after administration.

SD rats [3] = experiment: Sensory block, hot plate paw withdrawal time, bupivacaine minimum/maximum analgesic dose test (Example 28); type: in vivo, rat
From the text: as §1, §2
After 2-3 days of catheterization, the SD rats with the body weight of 230-250 g and into which catheters are embedded are screened before the experiment by a hot plate method. The hot plate is heated to (56±1)° C., one of the hind paws of the rat is placed on the hot plate, and the other hind paw is placed in the laboratory room temperature condition, and the tested paw withdrawal time is observed and recorded. The average value of three times measured is recorded as a basic pain threshold.
as §3
The sensory block of the rats is examined by a hot plate method. The hot plate is heated to (56±1)° C., one of the hind paws of the rat is placed on the hot plate, and the other hind paw is placed at room temperature in the laboratory, the tested paw withdrawal time is observed and recorded. The average value of two to three times is recorded as a pain threshold. The paw withdrawal time of the hot plate method is recorded. In order to avoid the damage of the experimental animal body, if the rat has not withdrawal paw in the hot plate experiment for more than 15 s, the rat should be removed from the hot plate, and the experimental result is recorded as 15 s. The time point for determining the paw withdrawal time of the hot plate is before administration, and 5 minutes, 10 minutes, 30 minutes, 1 hour, and 2 hours after administration.

experimental animals = experiment: Duration of non-anesthetic analgesic effect (statement in background); type: in vivo; conditions: single dose
[4] = group 2, 3 mg/kg (0.66 mg/rat) trans-catheter, 0 min (before administration)
[5] = group 2, 3 mg/kg (0.66 mg/rat) trans-catheter, 5 min
[6] = group 2, 3 mg/kg (0.66 mg/rat) trans-catheter, 10 min
[7] = group 2, 3 mg/kg (0.66 mg/rat) trans-catheter, 30 min
[8] = group 2, 3 mg/kg (0.66 mg/rat) trans-catheter, 60 min
[9] = group 2, 3 mg/kg (0.66 mg/rat) trans-catheter, 120 min
[10] = group 3, 1 mg/kg (0.22 mg/rat) trans-catheter, 0 min (before administration)
[11] = group 3, 1 mg/kg (0.22 mg/rat) trans-catheter, 5 min
[12] = group 3, 1 mg/kg (0.22 mg/rat) trans-catheter, 10 min
[13] = group 3, 1 mg/kg (0.22 mg/rat) trans-catheter, 30 min
[14] = group 3, 1 mg/kg (0.22 mg/rat) trans-catheter, 60 min
[15] = group 3, 1 mg/kg (0.22 mg/rat) trans-catheter, 120 min
[16] = group 4, 0.3 mg/kg (0.066 mg/rat) trans-catheter, 0 min (before administration)
[17] = group 4, 0.3 mg/kg (0.066 mg/rat) trans-catheter, 5 min
[18] = group 4, 0.3 mg/kg (0.066 mg/rat) trans-catheter, 10 min
[19] = group 4, 0.3 mg/kg (0.066 mg/rat) trans-catheter, 30 min
[20] = group 4, 0.3 mg/kg (0.066 mg/rat) trans-catheter, 60 min
[21] = group 4, 0.3 mg/kg (0.066 mg/rat) trans-catheter, 120 min
[22] = group 5, 0.1 mg/kg (0.022 mg/rat) trans-catheter, 0 min (before administration)
[23] = group 5, 0.1 mg/kg (0.022 mg/rat) trans-catheter, 5 min
[24] = group 5, 0.1 mg/kg (0.022 mg/rat) trans-catheter, 10 min
[25] = group 5, 0.1 mg/kg (0.022 mg/rat) trans-catheter, 30 min
[26] = group 5, 0.1 mg/kg (0.022 mg/rat) trans-catheter, 60 min
[27] = group 5, 0.1 mg/kg (0.022 mg/rat) trans-catheter, 120 min
[28] = group 6, 0.03 mg/kg (0.0066 mg/rat) trans-catheter, 0 min (before administration)
[29] = group 6, 0.03 mg/kg (0.0066 mg/rat) trans-catheter, 5 min
[30] = group 6, 0.03 mg/kg (0.0066 mg/rat) trans-catheter, 10 min
[31] = group 6, 0.03 mg/kg (0.0066 mg/rat) trans-catheter, 30 min
[32] = group 6, 0.03 mg/kg (0.0066 mg/rat) trans-catheter, 60 min
[33] = group 6, 0.03 mg/kg (0.0066 mg/rat) trans-catheter, 120 min

## 8-Arm-PEG-Bupivacaine, 20K [bupivacaine conjugate 10]
[1]; 0 h
  PEG-bupivacaine hydrolysis rate: 0.43%
[1]; 6 h
  PEG-bupivacaine hydrolysis rate: 15.03%
[1]; 12 h
  PEG-bupivacaine hydrolysis rate: 25.19%
[1]; 24 h
  PEG-bupivacaine hydrolysis rate: 40.37%
[1]; 48 h
  PEG-bupivacaine hydrolysis rate: 61.72%
[1]; 72 h
  PEG-bupivacaine hydrolysis rate: 76.25%
[1]; 96 h
  PEG-bupivacaine hydrolysis rate: 87.28%
[1]; 120 h
  PEG-bupivacaine hydrolysis rate: 92.76%
[1]; 144 h
  PEG-bupivacaine hydrolysis rate: 96.13%

## CCCCN1CCCCC1C(=O)Nc1c(C)cccc1C (stereo not drawn) [bupivacaine]
SD rats [2]; 3 mg/kg (0.66 mg/rat) and 1 mg/kg (0.22 mg/rat)
  motor block effect (summary): motor block effect
SD rats [2]; 0.3, 0.1, 0.03 mg/kg (ie, 0.066, 0.022, 0.0066 mg/rat)
  motor nerve block effect (summary): no motor nerve block effect is observed
SD rats [2]; [4]
  motor function score: 1 ± 0
SD rats [2]; [5]
  motor function score: 1 ± 0
SD rats [2]; [6]
  motor function score: 1.75 ± 0.5
SD rats [2]; [7]
  motor function score: 1.75 ± 0.5
SD rats [2]; [8]
  motor function score: 1.75 ± 0.5
SD rats [2]; [9]
  motor function score: 1 ± 0
SD rats [2]; [10]
  motor function score: 1 ± 0
SD rats [2]; [11]
  motor function score: 1.5 ± 0.58
SD rats [2]; [12]
  motor function score: 1.5 ± 0.58
SD rats [2]; [13]
  motor function score: 1.25 ± 0.5
SD rats [2]; [14]
  motor function score: 1 ± 0
SD rats [2]; [15]
  motor function score: 1 ± 0
SD rats [2]; [16]
  motor function score: 1 ± 0
SD rats [2]; [17]
  motor function score: 1 ± 0
SD rats [2]; [18]
  motor function score: 1 ± 0
SD rats [2]; [19]
  motor function score: 1 ± 0
SD rats [2]; [20]
  motor function score: 1 ± 0
SD rats [2]; [21]
  motor function score: 1 ± 0
SD rats [2]; [22]
  motor function score: 1 ± 0
SD rats [2]; [23]
  motor function score: 1 ± 0
SD rats [2]; [24]
  motor function score: 1 ± 0
SD rats [2]; [25]
  motor function score: 1 ± 0
SD rats [2]; [26]
  motor function score: 1 ± 0
SD rats [2]; [27]
  motor function score: 1 ± 0
SD rats [2]; [28]
  motor function score: 1 ± 0
SD rats [2]; [29]
  motor function score: 1 ± 0
SD rats [2]; [30]
  motor function score: 1 ± 0
SD rats [2]; [31]
  motor function score: 1 ± 0
SD rats [2]; [32]
  motor function score: 1 ± 0
SD rats [2]; [33]
  motor function score: 1 ± 0
SD rats [3]; [4]
  hot plate paw withdrawal time: 3.26 ± 0.88 s
SD rats [3]; [5]
  hot plate paw withdrawal time: 6.32 ± 2.29 s
SD rats [3]; [6]
  hot plate paw withdrawal time: 7.7 ± 3.88 s
SD rats [3]; [7]
  hot plate paw withdrawal time: 7.85 ± 3.36 s
SD rats [3]; [8]
  hot plate paw withdrawal time: 5.91 ± 1.9 s
SD rats [3]; [9]
  hot plate paw withdrawal time: 4.26 ± 1.42 s
SD rats [3]; [10]
  hot plate paw withdrawal time: 2.75 ± 0.74 s
SD rats [3]; [11]
  hot plate paw withdrawal time: 5.17 ± 5.41 s
SD rats [3]; [12]
  hot plate paw withdrawal time: 7.13 ± 5.43 s
SD rats [3]; [13]
  hot plate paw withdrawal time: 7.13 ± 4.01 s
SD rats [3]; [14]
  hot plate paw withdrawal time: 3.24 ± 0.85 s
SD rats [3]; [15]
  hot plate paw withdrawal time: 2.13 ± 0.8 s
SD rats [3]; [16]
  hot plate paw withdrawal time: 3.42 ± 0.87 s
SD rats [3]; [17]
  hot plate paw withdrawal time: 6.08 ± 1.68 s
SD rats [3]; [18]
  hot plate paw withdrawal time: 7.11 ± 2.55 s
SD rats [3]; [19]
  hot plate paw withdrawal time: 7.09 ± 1.45 s
SD rats [3]; [20]
  hot plate paw withdrawal time: 3.62 ± 1.25 s
SD rats [3]; [21]
  hot plate paw withdrawal time: 3.76 ± 0.69 s
SD rats [3]; [22]
  hot plate paw withdrawal time: 3.08 ± 0.61 s
SD rats [3]; [23]
  hot plate paw withdrawal time: 4.41 ± 3.24 s
SD rats [3]; [24]
  hot plate paw withdrawal time: 4.22 ± 2.45 s
SD rats [3]; [25]
  hot plate paw withdrawal time: 3.59 ± 1.89 s
SD rats [3]; [26]
  hot plate paw withdrawal time: 2.63 ± 0.41 s
SD rats [3]; [27]
  hot plate paw withdrawal time: 2.96 ± 1.38 s
SD rats [3]; [28]
  hot plate paw withdrawal time: 3.06 ± 1.1 s
SD rats [3]; [29]
  hot plate paw withdrawal time: 3.36 ± 0.91 s
SD rats [3]; [30]
  hot plate paw withdrawal time: 2.67 ± 0.6 s
SD rats [3]; [31]
  hot plate paw withdrawal time: 3.11 ± 1.22 s
SD rats [3]; [32]
  hot plate paw withdrawal time: 2.66 ± 0.53 s
SD rats [3]; [33]
  hot plate paw withdrawal time: 3.09 ± 0.82 s
Experimental animals
  time the non-anesthetic analgesic effect is maintained: at most 1 hour
